# According to patent publication US9403756B2, “N-phenyl anthranilic acid derivatives and uses thereof” (Ramot at Tel-Aviv University Ltd., priority 2007, dated 2016):
# What was measured:
# Type in all cases: cell-based
# [1] = biological target: T1, TRPV1 channels in Dorsal Root Ganglions (DRG) (Rattus norvegicus, UniProt O35433); assay: TRPV1 currents in DRG neurons activated by capsaicin; conditions: 5 μM; 0.5 μM capsaicin; reversible
# T1 construct: endogenous in cells; host or cells: primary rat dorsal root ganglion neurons
# Protocol: FIG. 14 presents the inhibitory effect of NH29, an exemplary compound according to some embodiments of the present invention, on TRPV1 channels in Dorsal Root Ganglions (DRG).
# For dorsal root ganglion (DRG) neuronal cultures, ganglia were dissected from 2-5 day-old Sprague-Dawley rats killed by decapitation. DRGs were placed in Hank's balanced saline solution (HBSS) and prepared by enzymatic dissociation. Briefly, after 30 minutes incubation in 5 mg/ml dispase, 2 mg/ml collagenase type 1A and 0.1 mg/ml DNase (Invitrogen/Gibco, Carlsbad, Calif.) in Ca^2+ and Mg^2+-free HBSS, the ganglia were mechanically triturated with a fire-polished glass Pasteur pipette. The ganglia were then centrifuged for 5 minutes at 80×g and resuspended in DMEM supplemented with 2 mM L-glutamine, 16.5 mM NaHCO3, 6 g/l glucose, 5 ml penicillin/streptomycin and 10% fetal calf serum.
# For electrophysiological recording, dissociated neurons were plated on 13 mm glass coverslips, previously coated with poly-D-lysine (1 mg/ml) and laminin (10 μg/ml) and used at 1-2 days in culture.
# Kv7.2 = biological target: T2, Kv7.2 (Homo sapiens, UniProt O43526); assay: Kv channel selectivity, Xenopus oocytes: Kv7.2; conditions: −40 mV
# T2 construct: expressed in transfected cells; host or cells: Xenopus oocytes
# Protocol: Voltage-clamp measurements in Xenopus oocytes were performed as previously described.
# (§1) The selectivity of NH29 on other relevant Kv channels expressed in Xenopus oocytes was also studied, and the results are summarized in Table 3 below. The specificity of NH29 at 25 μM and 50 μM towards various Kv channels was tested in Xenopus oocytes, except for Kv1.2 which was checked in transfected CHO cells. The current amplitude of the various Kv channels was tested at the indicated voltages and the effect of the drugs was expressed as fold of the control amplitude measured under the same conditions in the absence of the drug. The data in Table 3 are expressed as mean±SEM of 5-7 separate experiments.
# Kv1.2 = biological target: T3, Kv1.2 (Homo sapiens, UniProt P16389); assay: Kv channel selectivity, transfected CHO cells: Kv1.2; conditions: for Fold current amplitude: 0 mV, transfected CHO cells
# T3 construct: expressed in transfected cells; host or cells: CHO cells
# Protocol: (§2) Voltage-clamp recordings in CHO cells were performed, using the whole-cell configuration of the patch-clamp technique. Signals were amplified using an Axopatch 200B patch-clamp amplifier (Molecular Devices, Sunnyvale, Calif.), sampled at 2 kHz and filtered at 800 Hz via a 4-pole Bessel low pass filter. Data were acquired using pClamp 9.2 software (Molecular Devices) and an IBM compatible Pentium IV computer in conjunction with a DigiData 1322A interface (Molecular Devices). The patch pipettes were pulled from borosilicate glass (Warner Instrument Corp, USA) with a resistance of 2-5 MΩ. For K^+ current recordings in CHO cells, the intracellular pipette solution contained (in mM): 130 KCl, 1 MgCl2, 5 K2ATP, 5 EGTA, 10 HEPES, adjusted with KOH to pH 7.4 (290 mOsm). The extracellular solution contained (in mM): 140 NaCl, 4 KCl, 1.8 CaCl2, 1.2 MgCl2, 11 glucose, 5.5 HEPES, adjusted with NaOH to pH 7.4 (310 mOsm). Series resistances (3-13 MΩ) were compensated (75-90%) and periodically monitored.
# as §1
# wild type KCNQ2 = biological target: T4, wild type KCNQ2 (Homo sapiens, UniProt O43526); assay: Wild type KCNQ2 (Kv7.2) currents, patch-clamp; conditions: NH29
# T4 construct: expressed in transfected cells; host or cells: CHO cells (printed for the mutants and in the general method)
# Source text: FIGS. 10A-D present the potentiating effect of NH29, an exemplary channel opener compound according to embodiments of the present invention, on wild type KCNQ2 (FIGS. 10A and 10B) and R207W mutant (FIGS. 10C and 10D) channels, as expressed in activation curve measurements, showing that NH29 left-shifts the activation curve (ΔV50) by −15.5 mV and −5.5 mV in the case of the wild-type and the mutant, respectively, and showing that NH29 enhances the current of wild-type and the mutant by about 3.4-fold (at −40 mV) and 1.5-fold (at −20 mV), respectively.
# as §2, with “For K^+ current recordings in CHO cells, the intracellular pipette solution contained (in mM): 130 KCl, 1 MgCl2, 5 K2ATP, 5 EGTA, 10 HEPES, adjusted with KOH to pH 7.4 (290 mOsm). The extracellular solution contained (in mM): 140 NaCl, 4 KCl, 1.8 CaCl2, 1.2 MgCl2, 11 glucose, 5.5 HEPES, adjusted with NaOH to pH 7.4 (310 mOsm).” left out
# KCNQ2 mutant R198A = biological target: T5, KCNQ2 mutant R198A (Homo sapiens, UniProt O43526, R198A); assay: KCNQ2 S4 mutant R198A; conditions: 25 μM NH29 (25 M [sic])
# T5 construct: expressed in transfected cells
# Source text: FIGS. 12A-F present the potentiating effect of NH29, an exemplary channel opener compound according to embodiments of the present invention, on selected KCNQ2 mutants. Shown are bar diagrams comparing the potentiating effect of NH29 on native KCNQ2 and KCNQ2 mutants, wherein the mutated amino acids are located at the S1-S2 helix region (FIG. 12A) or S4 helix region (FIG. 12D) and wherein the opener effect is expressed as percent of the control current in the absence of the opener. For comparison, marked as a green line, is the observed current increase of native KCNQ2 by NH29. FIGS. 12B 12C, 12E and 12F present representative traces recorded from CHO cell transfected with the KCNQ2 mutant S122A, S121A, L206C and R201A respectively, before and after external application of 25 μM of NH29 and wherein the membrane potential was stepped from −90 mV holding potential to −40 mV for 1.5 seconds pulse duration.
# Voltage-clamp recordings in CHO cells were performed, using the whole-cell configuration of the patch-clamp technique. Signals were amplified using an Axopatch 200B patch-clamp amplifier (Molecular Devices, Sunnyvale, Calif.), sampled at 2 kHz and filtered at 800 Hz via a 4-pole Bessel low pass filter. […] Series resistances (3-13 MΩ) were compensated (75-90%) and periodically monitored.
# T3 sequence (P16389 whole entry): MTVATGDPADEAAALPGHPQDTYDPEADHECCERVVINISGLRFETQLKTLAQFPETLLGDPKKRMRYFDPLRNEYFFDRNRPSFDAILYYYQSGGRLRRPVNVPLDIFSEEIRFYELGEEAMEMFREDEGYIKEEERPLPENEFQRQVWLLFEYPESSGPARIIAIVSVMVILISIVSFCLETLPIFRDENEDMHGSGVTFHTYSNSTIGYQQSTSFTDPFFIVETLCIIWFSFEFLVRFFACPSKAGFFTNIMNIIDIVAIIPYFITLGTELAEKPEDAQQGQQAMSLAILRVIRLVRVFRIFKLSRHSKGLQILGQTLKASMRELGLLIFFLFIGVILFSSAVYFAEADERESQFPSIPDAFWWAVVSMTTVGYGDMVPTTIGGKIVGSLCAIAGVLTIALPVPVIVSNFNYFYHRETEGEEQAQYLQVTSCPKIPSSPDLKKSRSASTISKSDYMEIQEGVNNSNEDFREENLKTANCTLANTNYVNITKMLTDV
# T2 sequence (O43526 whole entry): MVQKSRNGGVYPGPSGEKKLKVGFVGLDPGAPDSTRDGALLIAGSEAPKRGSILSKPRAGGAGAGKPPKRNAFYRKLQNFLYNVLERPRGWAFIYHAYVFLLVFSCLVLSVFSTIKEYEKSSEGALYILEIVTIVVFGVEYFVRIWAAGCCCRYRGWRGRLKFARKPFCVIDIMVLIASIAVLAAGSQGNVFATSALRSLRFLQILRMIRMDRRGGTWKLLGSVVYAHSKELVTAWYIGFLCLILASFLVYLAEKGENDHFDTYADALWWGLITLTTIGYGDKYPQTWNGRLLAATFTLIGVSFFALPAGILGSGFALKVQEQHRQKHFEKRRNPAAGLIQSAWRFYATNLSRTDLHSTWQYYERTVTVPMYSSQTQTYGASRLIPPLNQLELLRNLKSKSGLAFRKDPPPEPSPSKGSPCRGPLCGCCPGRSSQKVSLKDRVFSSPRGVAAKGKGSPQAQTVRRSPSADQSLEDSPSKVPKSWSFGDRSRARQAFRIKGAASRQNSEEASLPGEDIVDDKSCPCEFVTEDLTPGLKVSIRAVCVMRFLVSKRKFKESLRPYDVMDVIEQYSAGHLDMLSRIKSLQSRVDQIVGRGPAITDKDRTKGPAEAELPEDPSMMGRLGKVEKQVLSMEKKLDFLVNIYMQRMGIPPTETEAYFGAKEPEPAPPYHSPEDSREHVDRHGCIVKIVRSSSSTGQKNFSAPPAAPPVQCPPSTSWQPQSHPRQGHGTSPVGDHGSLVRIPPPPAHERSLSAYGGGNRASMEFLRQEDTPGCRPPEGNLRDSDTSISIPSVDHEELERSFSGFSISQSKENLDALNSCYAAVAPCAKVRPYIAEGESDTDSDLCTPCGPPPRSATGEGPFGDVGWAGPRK
# T1 sequence (O35433 whole entry): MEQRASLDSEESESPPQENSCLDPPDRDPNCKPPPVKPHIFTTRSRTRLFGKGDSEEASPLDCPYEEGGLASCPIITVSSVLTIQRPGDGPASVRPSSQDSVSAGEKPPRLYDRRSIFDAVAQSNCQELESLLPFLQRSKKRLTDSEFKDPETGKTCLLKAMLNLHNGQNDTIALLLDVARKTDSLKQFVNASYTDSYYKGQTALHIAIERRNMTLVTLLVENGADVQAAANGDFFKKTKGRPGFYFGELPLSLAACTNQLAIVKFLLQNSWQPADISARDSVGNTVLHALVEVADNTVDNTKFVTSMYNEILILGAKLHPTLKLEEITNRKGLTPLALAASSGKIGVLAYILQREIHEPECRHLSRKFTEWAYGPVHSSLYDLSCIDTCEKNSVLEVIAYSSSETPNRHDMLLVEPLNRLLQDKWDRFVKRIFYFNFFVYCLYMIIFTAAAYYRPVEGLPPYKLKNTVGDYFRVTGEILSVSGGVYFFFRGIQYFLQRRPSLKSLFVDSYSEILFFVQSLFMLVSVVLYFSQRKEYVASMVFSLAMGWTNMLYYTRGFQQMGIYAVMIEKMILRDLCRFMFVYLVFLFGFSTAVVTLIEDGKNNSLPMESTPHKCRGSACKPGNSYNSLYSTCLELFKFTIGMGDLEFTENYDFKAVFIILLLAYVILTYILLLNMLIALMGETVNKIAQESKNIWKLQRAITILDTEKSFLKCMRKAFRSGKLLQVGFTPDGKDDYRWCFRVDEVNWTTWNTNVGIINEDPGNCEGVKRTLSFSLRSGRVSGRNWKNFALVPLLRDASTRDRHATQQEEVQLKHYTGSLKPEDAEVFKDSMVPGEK
# T5 sequence (O43526 whole entry R198A): as the sequence (O43526 whole entry) above, with R198A counted along it
# T4 sequence (O43526 whole entry): as the sequence (O43526 whole entry) above
compound,measurement,setting,value
O=C(Cc1cc([N+](=O)[O-])cc([N+](=O)[O-])c1Nc1c(Cl)cc([N+](=O)[O-])cc1Cl)NCCO [NH29],inhibition of TRPV1 current,[1],almost completely
same,Fold current amplitude,Kv7.2; 25 μM,3.5 ± 0.4 fold
same,Fold current amplitude,Kv7.2; 50 μM,6.8 ± 0.7 fold
same,Fold current amplitude,Kv1.2; 25 μM,0.9 ± 0.01 fold
same,Fold current amplitude,Kv1.2; 50 μM,0.66 ± 0.03 fold
same,inhibition at 50 µM,"Kv1.2; CHO, 50 μM, read-out: inhibition of Kv1.2 current",34%
same,left-shift of the activation curve (ΔV50),wild type KCNQ2,−15.5 mV
same,fold enhancement of current,KCNQ2 mutant R198A,1.6 fold
